Results: patent US20210121435A1, “METHODS FOR TREATING SEIZURES IN EPILEPSY WITH A COMPOSITION COMPRISING CANNABINOIDS” (MEDRELEAF CORP., priority 2019, published 2021)
Like-named read-outs stand apart in the source and are kept apart here.

Assays:
seizures [1] = conditions: after 3 months of treatment; TSC and treatment-resistant epilepsy; cited from earlier work
mice = conditions: intraperitoneally or orally; cited from earlier work
[2] = system: Amygdala kindled rats (generalized and focal seizures); assay: Seizure suppression in amygdala kindled rats; type: in vivo, rat; conditions: IP; for suppression of focal seizures: suppressed = absence of EEG seizure activity lasting more than 4 seconds, FIGS. 1B, 2B; for suppression of generalized seizures: suppressed = absence of stage 3 or higher seizure (Racine scale), FIGS. 1A, 2A
Protocol: Preclinical studies were performed to study the effects of CBD or THC alone, or CBD in combination with THC, on seizures. Amygdala kindled rats were used as a model for generalized and focal seizures in these studies.
Kindling Procedure: An insulated bipolar electrode was implanted in the right basolateral amygdala of male Sprague Dawley rats (50-55 days old). Two weeks following implantation, the rats began daily kindling. The stimulation used for kindling was a 1 second train of biphasic 60 Hz square wave pulses at an intensity of 400 micro-amps, once per day. Both the focal afterdischarge (AD) and convulsive behavior were monitored for a minimum of 30 seconds after stimulation or until an observed seizure ended. Rats were stimulated once daily until ten stage 5 Racine scale seizures have been generated, after which they are considered fully kindled (typically 3-4 weeks).
Seizure Scoring: The focal seizures were defined by observing the afterdischarge (AD) recorded by electroencephalogram (EEG) via the implanted electrode. The focal AD can last as long as 1-2 minutes post stimulation. The focal AD is not necessarily accompanied by a secondary generalized motor seizure, especially early in the kindling process. Early behavioural signs may include the cessation of behaviour or blinking. After sufficient kindling has been induced, generalized motor events of seizure generalization began to occur. These events were rated using the Racine scale. The stages are as follows: Stage 1—facial clonus; Stage 2—head nodding; Stage 3—forelimb clonus; Stage 4—forelimb clonus and rearing on hindlimbs; Stage 5—loss of postural control (rearing and following over).
Seizure Threshold Testing: Two days after the 10th stage 5 seizure was recorded, the animal's seizure threshold was tested using ascending series technique. The process was started at an intensity of 20 micro-amps, which was increased by 20 micro-amps every two minutes until an AD was produced. The seizure threshold is defined as the current needed to produce the AD.
Stability Testing: After seizure thresholds were determined, the animals underwent stability testing to confirm the reliability of the threshold. The animals were stimulated at 25% above the determined threshold 3 times per week for 2 weeks. If seizures were consistently evoked at this level of stimulation, the rat was considered stable. […]
The effects of: a) CBD alone (0, 20, 40, 80, 160, 320 mg/kg; 10 subjects per dose); b) THC alone (0, 5, 10, 20, 40, 80 mg/kg; 10 subjects per dose); or c) CBD+THC (15:1) (CBD dose of 0, 20, 40, 80, 160, 320 mg/kg; 10 subjects per dose), were tested. […] A generalized seizure was considered to be suppressed if there was an absence of stage 3 or higher seizure, assessed using the Racine scale. […]

[3] = Toxicity assessment of kindled rats before stimulation (Loscher ataxia scale); type: in vivo, rat; conditions: IP
Protocol: Before each round of drug testing stimulation, the rats were assessed for motor toxicity using the Loscher ataxia scale. This scale is used to determine motor impairment. The scale rankings are as follows: Stage 1—slight ataxia in hind legs, no decrease in abdominal muscle tone; Stage 2—more pronounced ataxia, slight decrease in abdominal muscle tone, flat body position; Stage 3—increased ataxia, continued decrease in abdominal muscle tone, more pronounced flat body posture, splayed hind legs, and crawling during forward motion; Stage 4—marked ataxia, loss of balance during forward motion, loss of abdominal muscle tone, flat body posture, splayed hind legs, and dragging during forward motion; Stage 5—very marked ataxia, frequent loss of balance during forward motion, loss of abdominal muscle tone.

convulsive seizures = conditions: participants with Dravet Syndrome and drug-resistant seizures; cited from earlier work
[4] = cited from earlier work
seizures [5] = conditions: of the 7 participants who received CBD; temporal-lobe epilepsy; cited from earlier work
[6] = Pharmacokinetics of orally administered CBD; type: in vivo, human; conditions: oral; 4 to 5 times the half-life
Source text: The half-life of CBD, administered orally, may be about […]. A steady state is may be reached about 10 days after regular dosing begins (i.e., 4 to 5 times the half-life). As such, with a 4 week treatment period all patients may achieve a steady state of CBD blood concentration.

seizures [7] = conditions: cited from earlier work; for median reduction (seizures): at 12 weeks
[8] = in vivo; cited from earlier work

C=C(C)[C@@H]1CCC(C)=C[C@H]1c1c(O)cc(CCCCC)cc1O [CBD, cannabidiol]
median percent change in total weekly seizure frequency (seizures [1]): −48.8%
dose-response of therapeutic benefits (anti-inflammatory and anti-nociceptive) (mice): bell-shaped dose-response
suppression of focal seizures [2]: suppress some generalized and focal seizures
suppression of generalized seizures [2]: suppress some generalized and focal seizures
doses with no observed toxic effects [3]: up to 320 mg/kg
frequency of occurrence of convulsive seizures (convulsive seizures): significantly reduced
patients who became seizure free (convulsive seizures): about 5%
safety and tolerability in clinical trials ([4]; human, in vivo): safe and well tolerated across a wide dosage range
doses for which no significant adverse effects have been reported ([4]; p.o.): up to 1500 mg/day
participants seizure free during treatment (seizures [5]): 4
time to steady state after regular dosing begins [6]: about 10 days
median reduction (seizures) (seizures [7]; patients with DS): 49.8%
participants free of seizures in the last four weeks of treatment (seizures [7]; patients with DS): 4 participants
median reduction (seizures) (seizures [7]; patients with LGS): 36.8%
participants free of seizures in the last four weeks of treatment (seizures [7]; patients with LGS): 1 participant

CCCCCc1cc(O)c2c(c1)OC(C)(C)[C@@H]1CCC(C)=C[C@@H]21 [THC, Δ^9-tetrahydrocannabinol]
suppression of focal seizures [2]: suppress some generalized and focal seizures
suppression of generalized seizures [2]: suppress some generalized and focal seizures
doses at which psychotoxicity was observed [3]: above 10 mg/kg
dose at which there may be psychotropic effects [8]: 10 mg
